# Laboratory results from patent US20110224208A1, “NOVEL INHIBITORS OF FLAVIVIRUS REPLICATION” (KATHOLIEKE UNIVERSITEIT LEUVEN, K.U. LEUVEN R&D, priority 2008, published 2011).
# What was measured:
# [1] = test system: HCV replicon I389luc-ubi-neo/NS3-3'/5.1; assay: Anti-HCV replicon assay (luciferase activity) in Huh-5-2 cells; format: cell-based, Hepatitis C virus; settings: concentration required to inhibit luciferase activity in the replicon system by 50%
# Method in brief: (§1)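 Huh-5-2 cells carrying the luciferase HCV replicon, seeded 24 h, then exposed to serial compound dilutions without G418 for 72 h at 37° C, 5% CO2. Replication read as luciferase luminescence, expressed as percentage of untreated cultures; culture density measured in parallel by MTS.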
# [2] = Proliferation of exponentially growing Huh-5-2 cells (MTS method); settings: human, CC50, concentration required to inhibit the proliferation of exponentially growing Huh-5-2 cells by 50%
# Method in brief: as §1
# Huh-5-2 cells = assay: as above; settings: concentration required to inhibit the proliferation of exponentially growing Huh-5-2 cells by 50%
# Method in brief: as §1
# [3] = test system: HCV replicon (RNA) synthesis; assay: Quantitative analysis of HCV replicon RNA by Taqman real-time RT-PCR in Huh-5-2 cells; format: cell-based, Hepatitis C virus
# Description: Replicon cells were plated at 7.5×10^3 cells per well in a 96-well plate plates at 37° C. and 5% CO2 in Dulbecco's modified essential medium containing 10% fetal calf serum, 1% nonessential amino acids and 1 mg/ml Geneticin. After allowing 24 h for cell attachment, different dilutions of compound were added to the cultures. Plates were incubated for 5 days, at which time RNA was extracted using the Qiamp Rneazyi Kit (Qiagen, Hilden, Germany). […] After initial activation of uracil-N-glycosylase at 50° C. for 2 minutes, RT was performed at 60° C. for 30 minutes, followed by inactivation of uracil-N-glycosylase at 95° C. for 5 minutes. Subsequent PCR amplification consisted of 40 cycles of denaturation at 94° C. for 20 seconds and annealing and extension at 62° C. for 1 minute in an ABI 7700 sequence detector. For each PCR run, negative template and positive template samples were used. The cycle threshold value (Ct-value) is defined as the number of PCR cycles for which the signal exceeds the baseline, which defines a positive value. The sample was considered to be positive if the Ct-value was <50. Results are expressed as genomic equivalents (GE).
# [4] = Hepatitis C virus, Huh-5-2, concentration required to reduce the synthesis of HCV replicon by 50% as determined by real-time quantitative RT-PCR
# [5] = Hepatitis C virus, Huh-5-2, 72 h
SMILES,CC50 at 72 h ([2]; Table 4),"EC50 [3, 4]","IC50 [1, 5]",CC50 at 72 h ([2]; Table 2),CC50 (Huh-5-2 cells; Table 2),further results
"COCCN1C(=O)c2ccccc2C(C(=O)Nc2cccc(OC)c2)C1c1cccs1 (racemic) [C1, 2-(2-methoxyethyl)-N-(3-methoxyphenyl)-1-oxo-3-(thiophen-2-yl)-1,2,3,4-tetrahydroisoquinoline-4-carboxamide]",> 50 µg/mL,24 µg/mL,,,,"IC50 ([1]; 72 hours, listed as C1 (cis)): 0.3 µg/mL; CC50 (Huh-5-2 cells; Table 2, listed as C1 (cis)): 83.7 µg/mL"
"COCCN1C(=O)c2cc(C)ccc2C(C(=O)Nc2cccc(OC)c2)C1c1cccs1 (stereo not drawn) [C41, 2-(2-Methoxyethyl)-N-(3-methoxyphenyl)-7-methyl-1-oxo-3-(thiophen-2-yl)-1,2,3,4-tetrahydroisoquinoline-4-carboxamide]",> 50 µg/mL,0.28 µg/mL,0.5 µg/mL,107 µg/mL,,
"COCCN1C(=O)c2c(Cl)cccc2C(C(=O)Nc2cccc(OC)c2)C1c1cccs1 (stereo not drawn) [C24, 8-Chloro-2-(2-methoxyethyl)-N-(3-methoxyphenyl)-1-oxo-3-(thiophen-2-yl)-1,2,3,4-tetrahydroisoquinoline-4-carboxamide]",,,35.7 µg/mL,,125 µg/mL,
"COCCN1C(=O)c2ccccc2C(C(=O)Nc2cccc(OC)c2)C1c1cccs1 (racemic) [C2, 2-(2-methoxyethyl)-N-(3-methoxyphenyl)-1-oxo-3-(thiophen-2-yl)-1,2,3,4-tetrahydroisoquinoline-4-carboxamide]",,,,,,"IC50 ([1]; 72 hours, listed as C2 (trans)): 1.3 µg/mL; CC50 (Huh-5-2 cells; Table 2, listed as C2 (trans)): 41.2 µg/mL; CC50 (Huh-5-2 cells; Table 4): >50 µg/mL; EC50 ([3]; concentration required to reduce the synthesis of HCV replicon by 50% as determined by real-time quantitative RT-PCR): 17.000 µg/mL"
"COCCN1C(=O)c2ccccc2C(C(=O)Nc2cccc(OC)c2)C1Cc1ccccc1 (stereo not drawn) [C68, 3-Benzyl-2-(2-methoxyethyl)-N-(3-methoxyphenyl)-1-oxo-1,2,3,4-tetrahydroisoquinoline-4-carboxamide]",,,70.6 µg/mL,,125 µg/mL,
"C#CC1C(C(=O)Nc2ccc(-n3cccc3)cc2)c2ccccc2C(=O)N1CCOC (stereo not drawn) [C152, N-(4-(1H-pyrrol-1-yl)phenyl)-3-ethynyl-2-(2-methoxyethyl)-1-oxo-1,2,3,4-tetrahydroisoquinoline-4-carboxamide]",> 30 µg/mL,0.2 µg/mL,0.2 µg/mL,30 µg/mL,,
"COCCN1C(=O)c2ccccc2C(CNc2ccc(Cl)cc2)C1c1cccs1 (stereo not drawn) [C78, 4-((4-chlorophenylamino)methyl)-2-(2-methoxyethyl)-3-(thiophen-2-yl)-3,4-dihydroisoquinolin-1(2H)-one]",,,50.5 µg/mL,,125 µg/mL,
"COCCN1C(=O)c2ccccc2C(C(=O)Nc2ccc(-n3cccc3)cc2)C1c1cccs1 (stereo not drawn) [C116, N-(4-(1H-pyrrol-1-yl)phenyl)-2-(2-methoxyethyl)-1-oxo-3-(thiophen-2-yl)-1,2,3,4-tetrahydroisoquinoline-4-carboxamide]",> 50 µg/mL,0.062 µg/mL,0.04 µg/mL,72.4 µg/mL,,
"COCCN1C(=O)c2ccccc2C(C(=O)NCc2ccc(OC)cc2)C1c1cccs1 (stereo not drawn) [C79, N-(4-methoxybenzyl)-2-(2-methoxyethyl)-1-oxo-3-(thiophen-2-yl)-1,2,3,4-tetrahydroisoquinoline-4-carboxamide]",,,68.2 µg/mL,,125 µg/mL,
"COCCN1C(=O)c2ccccc2C(C(=O)Nc2cccc(OC)c2)C1C#C[Si](C)(C)C (stereo not drawn) [C70, 2-(2-methoxyethyl)-N-(3-methoxyphenyl)-1-oxo-3-((trimethylsilyl)ethynyl)-1,2,3,4-tetrahydroisoquinoline-4-carboxamide]",,,3.33 µg/mL,,125 µg/mL,
"CCOC(=O)c1cccc(NC(=O)C2c3ccccc3C(=O)N(CCOC)C2c2cccs2)c1 (stereo not drawn) [C46, Ethyl 3-(2-(2-methoxyethyl)-1-oxo-3-(thiophen-2-yl)-1,2,3,4-tetrahydroisoquinoline-4-carboxamido)benzoate]",> 50 µg/mL,1.19 µg/mL,1.4 µg/mL,86.3 µg/mL,,
"COCCN1C(=O)c2ccccc2C(C(=O)Nc2ccc(-c3ccco3)cc2)C1c1cccs1 (stereo not drawn) [C159, N-(4-(furan-2-yl)phenyl)-2-(2-methoxyethyl)-1-oxo-3-(thiophen-2-yl)-1,2,3,4-tetrahydroisoquinoline-4-carboxamide]",> 50 µg/mL,0.064 µg/mL,0.028 µg/mL,> 100 µg/mL,,
"COCCN1C(=O)c2ccccc2C(C(=O)Nc2ccc(-c3ncccn3)cc2)C1c1cccs1 (stereo not drawn) [C175, 2-(2-methoxyethyl)-1-oxo-N-(4-(pyrimidin-2-yl)phenyl)-3-(thiophen-2-yl)-1,2,3,4-tetrahydroisoquinoline-4-carboxamide]",,0.046 µg/mL,0.057 µg/mL,,,
"COc1cccc(NC(=O)C2c3ccccc3C(=O)N(CC3CCCO3)C2c2cccs2)c1 (stereo not drawn) [C31, N-(3-methoxyphenyl)-1-oxo-2-((tetrahydrofuran-2-yl)methyl)-3-(thiophen-2-yl)-1,2,3,4-tetrahydroisoquinoline-4-carboxamide]",> 50 µg/mL,18 µg/mL,1.1 µg/mL,66.5 µg/mL,,
"COCCN1C(=O)c2ccccc2C(C(=O)Nc2ccc(Oc3cncc(C)n3)cc2)C1c1cccs1 (stereo not drawn) [C191, 2-(2-methoxyethyl)-N-(4-(6-methylpyrazin-2-yloxy)phenyl)-1-oxo-3-(thiophen-2-yl)-1,2,3,4-tetrahydroisoquinoline-4-carboxamide]",,0.013 µg/mL,0.013 µg/mL,,,
"COCCN1C(=O)c2ccccc2C(C(=O)Nc2ccc(-c3ccccc3)nc2)C1c1cccs1 (stereo not drawn) [C186, 2-(2-methoxyethyl)-1-oxo-N-(6-phenylpyridin-3-yl)-3-(thiophen-2-yl)-1,2,3,4-tetrahydroisoquinoline-4-carboxamide]",> 50 µg/mL,0.045 µg/mL,0.04 µg/mL,2.79 µg/mL,,
"COCCN1C(=O)c2cc(F)ccc2C(C(=O)Nc2cccc(OC)c2)C1c1cccs1 (stereo not drawn) [C52, 7-Fluoro-2-(2-methoxyethyl)-N-(3-methoxyphenyl)-1-oxo-3-(thiophen-2-yl)-1,2,3,4-tetrahydroisoquinoline-4-carboxamide]",> 50 µg/mL,< 0.4 µg/mL,0.4 µg/mL,81.2 µg/mL,,
"COCCN1C(=O)c2ccccc2C(C(=O)Nc2cccc(OC)c2)C1CC(F)(F)F (stereo not drawn) [C71, 2-(2-methoxyethyl)-N-(3-methoxyphenyl)-1-oxo-3-(2,2,2-trifluoroethyl)-1,2,3,4-tetrahydroisoquinoline-4-carboxamide]",,,12.6 µg/mL,,125 µg/mL,
"COCCN1C(=O)c2ccccc2C(C(=O)Nc2ccc(Cl)cc2)C1c1cccs1 (stereo not drawn) [C49, N-(4-chlorophenyl)-2-(2-methoxyethyl)-1-oxo-3-(thiophen-2-yl)-1,2,3,4-tetrahydroisoquinoline-4-carboxamide]",,0.85 µg/mL,0.1 µg/mL,,,
"COCCN1C(=O)c2ccccc2C(C(=O)Nc2ccc(-c3noc(C)n3)cc2)C1c1cccs1 (stereo not drawn) [C187, 2-(2-methoxyethyl)-N-(4-(5-methyl-1,2,4-oxadiazol-3-yl)phenyl)-1-oxo-3-(thiophen-2-yl)-1,2,3,4-tetrahydroisoquinoline-4-carboxamide]",,< 0.016 µg/mL,0.01 µg/mL,,,
